We go through two compounds from US10251897B2, “GLUT4 endocytosis inhibitor” (NISHIZAKI BIOINFORMATION RESEARCH INSTITUTE, priority 2014, dated 2019).

The subject of data set [1] is GLUT4. In words: GLUT4 mobilization monitoring (cellular membrane distribution of GLUT4, Western blotting with anti-c-myc antibody). It counts as cell-based. On the procedure:
FIG. 1 is a graph showing that DOPE has an action to increase cellular membrane distribution of GLUT4 in differentiated 3T3L1-GLUT4myc adipocytes. The cells were not treated with (Control), or treated with 1 μM of various phospholipid derivatives and, after 20 min, lysed, and separated into the cytoplasm (C) fraction and cellular membrane (M) fraction, after which Western blotting was performed using an anti-c-myc antibody. […] P value, ANOVA (Bonferroni adjustment). NS; not significant. DOPE; 1,2-dioleoyl-sn-glycero-3-phosphoethanolamine, DAPE; 1,2-diarachidonoyl-sn-glycero-3-phosphoethanolamine, DPPE; 1,2-dipalmitoleoyl-sn-glycero-3-phosphoethanolamine, DLPE; 1,2-dilinoleoyl-sn-glycero-3-phosphoethanolamine.
(§1) 3T3L1-GLUT4myc fibroblast strain expressing GLUT4myc was used. The cells are constructed by inserting human c-MYC epitope (14 amino acids) into the first ectodomain. […]
The protein concentration of each fraction was measured using BCA protein assay kit (Thermo Fisher Scientific, Waltham, Mass., USA). […] The immunoreactivity was detected using ECL kit (Invitrogen), and visualized using a chemical luminescence detection system (chemiluminescence detection system; GE Healthcare, Piscataway, N.J., USA). The signal density was measured using an image analysis software (Image Gauge software; GE Healthcare).

Data set [2] has as its system GLUT4. In words: GLUT4 internal transfer (uptake) assay after insulin pre-treatment. It counts as cell-based. Particulars: insulin 100 nM 30 min then washed. How it is done:
FIG. 2 is a graph showing that the GLUT4 cellular membrane distribution increasing action of DOPE derives from the suppression of GLUT4 endocytosis. 3T3L1-GLUT4myc adipocytes were treated with insulin (100 nM) for 30 min (−30-0 min), then washed to remove insulin (0 min), and DOPE (10 mM) was added to an extracellular solution. After incubation for 120 min, the cells were lysed, and separated into the cytoplasm (C) fraction and cellular membrane (M) fraction, after which Western blotting was performed using an anti-c-myc antibody. […] P value, ANOVA (Bonferroni adjustment). NS; not significant.
as §1
The protein concentration of each fraction was measured using BCA protein assay kit (Thermo Fisher Scientific, Waltham, Mass., USA). […] The immunoreactivity was detected using ECL kit (Invitrogen), and visualized using a chemical luminescence detection system (chemiluminescence detection system; GE Healthcare, Piscataway, N.J., USA). The signal density was measured using an image analysis software (Image Gauge software; GE Healthcare). […]

Another data set deals with PKC isozymes. Put plainly: Cell free PKC assay, PKC isozymes. It counts as biochemical. Particulars: DOPE 100 μM, absence of TPA. How it is done: (§2) PKC activity was monitored in a cell-free system. (A) Given PKC isozyme was evaluated in the absence or presence of DOPE (100 μM). […] P value, compared to each PKC isozyme activation in the absence of DOPE, Dunnett's test. (B) The activity of PKCα was evaluated in the absence (control) or presence of DOPE (100 μM), in the absence or presence of TPA (1 μM). […] P value, Dunnett's test. TPA; 12-O-tetradecanoylphorbol-[…].
(§3) PKC activity in a cell-free system was quantified by the methods described in previous reports (Kanno T et al. J Lipid Res 2006; 47:1146-1156). In short, synthesized PKC substrate peptide (10 μM) was reacted with various PKC isozymes in a medium containing 20 mM Tris-HCl (pH 7.5), 5 mM magnesium acetate, 10 μM ATP, in the presence or absence of DOPE (100 μm), in the presence or absence of 1 μM TPA (12-O-tetradecanoylphorbol-13-acetate) at 30° C. for 5 min. […] They were applied on reversed-phase HPLC (LC-10ATvp, Shimadzu Co., Kyoto, Japan), and the peak of substrate peptide and the peak of a new resultant product were measured by the absorbance at 214 nm. The areas of unphosphorylated PKC substrate peptide and phosphorylated PKC substrate peptide were measured (total area corresponds to the concentration of PKC substrate peptide used in this Example), and the amount of the phosphorylated substrate peptide was calculated. […]

The next data set in a line: Glucose tolerance test. It counts as in vivo, C57BL/KsJ-lepr^db/lepr^db mouse. Particulars: type 2 diabetes model mouse, DOPE 0.1, 1, 10 mg/kg oral 30 min before glucose 2 g/kg; 30, 60, 90 min. How it is done: FIG. 6 is a graph showing that DOPE decreases the serum glucose level in C57BL/KsJ-lepr^db/lepr^db mouse. The mouse was placed in glucose starvation for 12 hr, glucose (2 g/kg) was orally administered, the blood was recovered at a given time and serum glucose assay was performed. DOPE was orally administered at a given concentration (0-10 mg/kg) 30 min before administration of glucose. […] P value, Fisher's PLSD (Protected Least Significant Difference test).
C57BL/KsJ-lepr^db/lepr^db mouse (female, 8-week-old) (CLEA Japan; Tokyo, Japan) was used. Glucose tolerance test was performed using the mouse starved for 12 hr. Glucose (2 g/ml/kg body weight) was administered by gavage, and the time point thereof was taken as 0 h. DOPE (0, 0.1, 1, 10 mg/kg) was orally administered 30 min before administration of glucose. Brine was used for DOPE (0 mg/kg). The blood (10 μl) was collected from the tail vein at the time points of 30, 60, and 90 min, and each plasma sample which was labeled with 4-aminobenzyl ethyl ester (ABEE) and prepared from the obtained blood was loaded on high performance liquid chromatography (HPLC) system (LC-10ATvp; Shimadzu Co., Kyoto, Japan). The glucose concentration was calculated from a peak area/concentration analytical curve prepared using the standard glucose solution.

In a further data set the target is PKCα (Homo sapiens, UniProt P17252). Put plainly: Cell free PKC assay, PKCα activated by TPA. Type of data set: biochemical. Particulars: DOPE 100 μM, TPA 1 μM. How it is done:
as §2, §3

For the compound `CCCCCCCC/C=C\CCCCCCCC(=O)OC[C@H](COP(=O)(O)OCCN)OC(=O)CCCCCCC/C=C\CCCCCCCC` [DOPE, 1,2-Dioleoyl-sn-glycerol-3-phosphoethanolamine], the “distribution of GLUT4 in cellular membrane (c-myc signal in cellular membrane fraction / total cells)” value with GLUT4 [1] (differentiated 3T3L1-GLUT4myc adipocytes, 1 μM phospholipid derivative, 20 min, vs Control) is “significantly increased”. Further, in the data set on GLUT4 [2] (3T3L1-GLUT4myc adipocytes), the “endocytosis of GLUT4 transported onto the cellular membrane by insulin stimulation” value was “suppressed”. For the same compound, in the data set on PKC isozymes, the “PKC activation (PKC isozyme activity, pmol/min)” value was “not involved in PKC activation”. Besides, in the data set “Glucose tolerance test”, the blood glucose level result is given as “decrease blood glucose level of type 2 diabetes model mouse in a dose dependent manner”. The “PKCα activity activated by TPA” value on PKCα is reported as “suppress PKCα activated by TPA”.

“PKCα siRNA: siRNA for PKCα, SEQ ID NO: 1 and 2, purchased from Ambion (chain 1 GAACGUGCAUGAGGUGAAATT; chain 2 UUUCACCUCAUGCACGUUCTT; chemistry not given here) [reference compound]”: the “GLUT4 distribution on the cellular membrane” value with GLUT4 [1] (3T3L1-GLUT4myc adipocytes 48 hr after siRNA transfection, vs NC siRNA) was “significantly increased”. For the same compound, in the data set with GLUT4 [2] (siRNA-transfected 3T3L1-GLUT4myc adipocytes, 120 min), the “decrease of GLUT4 on the cellular membrane by endocytosis after insulin stimulation” value was “the decrease was suppressed”.
